# Results from publication PMC12428237, “Study on the Calcium Transport-Promoting Property and Mechanism of the Peptide–Calcium Complex DEEENDQVK–Ca Based on a Caco-2 Monolayer Model” (Foods, 2025).
# Assays:
# calbindin-D9k = assay: RT-qPCR, calbindin-D9k mRNA expression; format: cell-based, human; details: Caco-2 monolayer, 24 h, 2 mg/mL DK–Ca or 2 mg/mL DK + 7.5 mM CaCl2; normalized to GAPDH, 2^-ΔΔCt; n = 3
# Method: (§1) The expression levels of genes related to calcium transport channels were determined following the method of Li et al.. After 21 days of establishing the Caco-2 monolayer model, the monolayers were treated for 24 h with a complete medium containing 2 mg/mL DK–Ca or 2 mg/mL DK + 7.5 mM CaCl2. The group without an added sample served as the control group. Subsequently, the monolayers were washed thrice with HBSS buffer before cell lysis using 200 μL RNAiso Plus. Total RNA was extracted, and first-strand cDNA synthesis was subsequently performed with the PrimeScript® RT reagent kit as per the kit manufacturer’s instructions. Using cDNA as a template, RT-qPCR was performed with gene-specific primers targeting TRPV6, calbindin-D9k, PMCA1b, occludin, and claudin-2. The standard procedure for PCR amplification was as follows: 95 °C for 30 s, followed by 40 cycles of 95 °C for 5 s, 60 °C for 30 s, and 72 °C for 1 min. Target gene expression level was normalized to GAPDH and calculated using the 2^^(-ΔΔCt) relative quantification method. In experimental groups, GAPDH served as the internal reference gene for normalization. All primer sequences used in this study are detailed in Table S1.
# Caco-2 monolayer = assay: Effect of dietary components (vitamin D3, phytic acid) on calcium transport in Caco-2 monolayer; format: cell-based, human; details: 120 min, control without dietary component, n = 3
# Method: Vitamin D3 (0.5 μmol/L, dissolved in 0.1% ethanol) or phytic acid (1.8 mM, with a of phytic acid/calcium molar ratio of 0.24) was added to the AP side to evaluate the effect of dietary components on calcium transport. The group without an added dietary component served as the control group. After 120 min incubation, the BL side solution was collected for calcium transport analysis.
# occludin = assay: RT-qPCR, occludin mRNA expression; format: cell-based, human; details: Caco-2 monolayer, 24 h, 2 mg/mL DK–Ca or 2 mg/mL DK + 7.5 mM CaCl2; normalized to GAPDH, 2^-ΔΔCt; n = 3
# Method: as §1
# [1] = Caco-2; cited from earlier work
# claudin-2 = assay: RT-qPCR, claudin-2 mRNA expression; format: cell-based, human; details: Caco-2 monolayer, 24 h, 2 mg/mL DK–Ca or 2 mg/mL DK + 7.5 mM CaCl2; normalized to GAPDH, 2^-ΔΔCt; n = 3
# Method: as §1
# TRPV6 = assay: RT-qPCR, TRPV6 mRNA expression; format: cell-based, human; details: Caco-2 monolayer, 24 h, 2 mg/mL DK–Ca or 2 mg/mL DK + 7.5 mM CaCl2; normalized to GAPDH, 2^-ΔΔCt; n = 3
# Method: as §1
# PMCA1b = assay: RT-qPCR, PMCA1b mRNA expression; format: cell-based, human; details: Caco-2 monolayer, 24 h, 2 mg/mL DK–Ca or 2 mg/mL DK + 7.5 mM CaCl2; normalized to GAPDH, 2^-ΔΔCt; n = 3
# Method: as §1
substance,measurement,setting,value
"DEEENDQVK–Ca [DK–Ca, complex formed by chemically chelating DK with CaCl2]","calbindin-D9k mRNA expression, upregulation compared to the untreated control group",calbindin-D9k,2.26 fold
same,reduction of transported calcium by phytic acid compared to the control group,Caco-2 monolayer; phytic acid 1.8 mM (phytic acid/calcium molar ratio 0.24) on AP side,7.83%
same,increase of transported calcium by vitamin D3 compared to the control group,Caco-2 monolayer; vitamin D3 0.5 μmol/L on AP side,11.3%
same,occludin mRNA expression compared to the control group,occludin,unchanged
same,calcium dialysis rate relative to CaCO3,[1],1.79 times
same,solubility relative to blank control group (CaCO3),[1],1.56 times
same,"claudin-2 mRNA expression, upregulation compared to the control group",claudin-2,1.50 fold
same,"TRPV6 mRNA expression, upregulation compared to the untreated control group",TRPV6,2.70 fold
same,"PMCA1b mRNA expression, upregulation compared to the untreated control group",PMCA1b,2.17 fold
